How the values were obtained:
H23 cell line = assay: Hypomethylating drug treatment of H23 cells, methylation read out by 15-plex FLAP-Melt; assay type: cell-based, human; settings: 500 nM, course of 7 days
Method: (§1) FIGS. 24A-24D. Methylation analysis in Aza-treated cell lines. Normalized methylation levels in untreated and 500 nM Aza-treated cells for H23 (A) and H520 (B) cell lines. Relative methylation changes in Aza-treated cells, normalized to untreated controls, are shown as clustered bar plots. Each cluster represents a loci from the 15-plex panel, with bars indicating different time points. (C) H23 cell line. (D) H520 cell line.
(§2) A notable application of digital PCR-based cfDNA tests is longitudinal disease progression monitoring over and after a course of treatment due to the quantification capability of the technology. Next, we sought to evaluate the performance of our assay in detecting multiple methylation biomarkers in real biological samples with a focus on the ability of our assay to quantify methylation level changes. We started with two cancer cell lines, H23 and H520, derived from lung tissues of NSCLC patients. To replicate a typical treatment monitoring scenario, we conducted hypomethylating drug treatment on the cell lines using 5-Azacytidine (5-Aza), a drug that can irreversibly bind to DNA methyltransferase after being incorporated into DNA and inhibits its activity. H520 and H23 were treated with 5-Aza at 500 nM over a course of 5 and 7 days, respectively. […]

H520 cell line = assay: Hypomethylating drug treatment of H520 cells, methylation read out by 15-plex FLAP-Melt; assay type: cell-based, human; settings: 500 nM, course of 5 days
Method: as §1, §2

Nc1ncn([C@@H]2O[C@H](CO)[C@@H](O)[C@H]2O)c(=O)n1 [5-Aza, 5-Azacytidine]
confluency rate of treated cells compared with untreated cells (H23 cell line): much lower | methylation level of targets (15-plex panel) in treated cells (H23 cell line; vs untreated cells, majority of the targets): decreasing trend | confluency rate of treated cells compared with untreated cells (H520 cell line): much lower | methylation levels of targets (15-plex panel) in treated cells (H520 cell line; vs untreated cells): decreased overtime
